The experiment concerns the target T1, human β-Secretase (Homo sapiens, UniProt P56817).
T1 construct: soluble part of the human β-Secretase (AA 1-AA 460); Fc domain of IgG1 (C); made in house
Put plainly: TR-FRET assay. In kind it is biochemical. The settings on record: sBACE-Fc, substrate (Europium)CEVNLDAEFK(Qsy7) 100 nM, pH4.5, unit not in table. As to the method: The β-secretase enzyme used in the TR-FRET is prepared as follows:
The cDNA for the soluble part of the human β-Secretase (AA 1-AA 460) was cloned using the ASP2-Fc10-1-IRES-GFP-neoK mammalian expression vector. The gene was fused to the Fc domain of IgG1 (affinity tag) and stably cloned into HEK 293 cells.
The enzyme (truncated form) was diluted to 6 μg/mL (stock 1.3 mg/mL) and the substrate (Europium)CEVNLDAEFK(Qsy7) to 200 nM (stock 120 μM) in reaction buffer (NaAcetate, chaps, triton x-100, EDTA pH4.5). The robotic systems Biomek FX and Velocity 11 were used for all liquid handling and the enzyme and substrate solutions were kept on ice until they were placed in the robotic system. Enzyme (9 μl) was added to the plate then 1 μl of compound in dimethylsulphoxide was added, mixed and pre-incubated for 10 minutes. Substrate (10 μl) was then added, mixed and the reaction proceeded for 15 minutes at room temperature. The reaction was stopped with the addition of Stop solution (7 μl, NaAcetate, pH 9). The fluorescence of the product was measured on a Victor II plate reader with an excitation wavelength of 340 nm and an emission wavelength of 615 nm. The assay was performed in a Costar 384 well round bottom, low volume, non-binding surface plate (Corning #3676). […] The dimethylsulphoxide control, instead of test compound, defined the 100% activity level and 0% activity was defined by wells lacking enzyme (replaced with reaction buffer).
(In general: Time-resolved FRET reads energy transfer from a long-lived donor to a nearby acceptor.)

IC50 data for 24 molecules are collected here from US20100125087A1, “NEW COMPOUNDS 575” (AstraZeneca AB, priority 2008, published 2010).

Broadly, the IC50 is the concentration that gives 50% inhibition. A low value points to greater potency in that assay.

Structures can show the parent of a compound that is named as a salt.

T1 sequence (P56817 22-460): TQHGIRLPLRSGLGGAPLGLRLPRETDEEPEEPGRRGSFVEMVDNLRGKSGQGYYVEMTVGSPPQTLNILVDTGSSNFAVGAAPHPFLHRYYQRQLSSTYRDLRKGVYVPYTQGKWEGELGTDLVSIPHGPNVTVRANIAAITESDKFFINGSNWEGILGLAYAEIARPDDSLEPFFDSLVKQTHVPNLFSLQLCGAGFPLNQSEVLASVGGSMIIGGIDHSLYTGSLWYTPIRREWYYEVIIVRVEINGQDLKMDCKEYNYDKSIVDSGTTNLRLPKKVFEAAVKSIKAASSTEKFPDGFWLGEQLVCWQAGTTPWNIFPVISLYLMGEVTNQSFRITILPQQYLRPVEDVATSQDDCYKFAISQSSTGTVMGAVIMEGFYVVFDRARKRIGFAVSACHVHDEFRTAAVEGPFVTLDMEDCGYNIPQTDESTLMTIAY

Molecule `CC(C)COc1cccc(C2(c3ccncc3)N=C(N)c3ncccc32)c1` (stereo not drawn) [Example 1, 5-(3-Isobutoxyphenyl)-5-(pyridin-4-yl)-5H-pyrrolo[3,4-b]pyridin-7-amine] showed an IC50 of 640 nM. That is a sub-micromolar value.

Consider `CC(C)CCOc1cccc(C2(c3ccncc3)N=C(N)c3ncccc32)c1` (stereo not drawn) [Example 2, 5-(3-(Isopentyloxy)phenyl)-5-(pyridin-4-yl)-5H-pyrrolo[3,4-b]pyridin-7-amine], for which it took 1700 nM to reach half-maximal inhibition (IC50).

Regarding `NC1=NC(c2ccncc2)(c2cccc(OCC3CCCC3)c2)c2cccnc21` (stereo not drawn) [Example 3, 5-(3-(Cyclopentylmethoxy)phenyl)-5-(pyridin-4-yl)-5H-pyrrolo[3,4-b]pyridin-7-amine], the IC50 worked out at 1500 nM.

`NC1=NC(c2ccncc2)(c2cccc(OCC3CCC3)c2)c2cccnc21` (stereo not drawn) [Example 4, 5-(3-(Cyclobutylmethoxy)phenyl)-5-(pyridin-4-yl)-5H-pyrrolo[3,4-b]pyridin-7-amine]: the IC50 came to 2700 nM. Against the preceding molecule, the IC50 is about 1.8-fold higher.

For `NC1=NC(c2ccncc2)(c2cccc(OCC3CC3(F)F)c2)c2cccnc21` (stereo not drawn) [Example 5, 5-(3-((2,2-Difluorocyclopropyl)methoxy)phenyl)-5-(pyridin-4-yl)-5H-pyrrolo[3,4-b]pyridin-7-amine], the concentration for half-maximal inhibition (IC50) turned out to be 2300 nM.

Consider `NC1=NC(c2cccc(OCCCF)c2)(c2ccnc(C(F)(F)F)c2)c2cccnc21` (stereo not drawn) [Example 6, 5-(3-(3-Fluoropropoxy)phenyl)-5-(2-(trifluoromethyl)pyridin-4-yl)-5H-pyrrolo[3,4-b]pyridin-7-amine], for which the 50% inhibitory concentration (IC50) turned out to be 1500 nM.

As to `NC1=NC(c2cccc(OCC3CCC3)c2)(c2ccnc(C(F)(F)F)c2)c2cccnc21` (stereo not drawn) [Example 7, 5-(3-(Cyclobutylmethoxy)phenyl)-5-(2-(trifluoromethyl)pyridin-4-yl)-5H-pyrrolo[3,4-b]pyridin-7-amine], the half-maximal inhibitory concentration (IC50) stood at 1200 nM.

`NC1=NC(c2ccncc2)(c2cccc(OC3CCCC3)c2)c2cccnc21` (stereo not drawn) [Example 8, 5-(3-(Cyclopentyloxy)phenyl)-5-(pyridin-4-yl)-5H-pyrrolo[3,4-b]pyridin-7-amine] displayed an IC50 of 3000 nM.

Turning to `NC1=NC(c2ccncc2)(c2cccc(OC3CCC3)c2)c2cccnc21` (stereo not drawn) [Example 9, 5-(3-Cyclobutoxyphenyl)-5-(pyridin-4-yl)-5H-pyrrolo[3,4-b]pyridin-7-amine], it took 8000 nM to reach half-maximal inhibition (IC50).

`COc1cccc(C2(c3ccncc3)N=C(N)c3ncccc32)c1` (stereo not drawn) [Example 9i, 5-(3-Methoxyphenyl)-5-(pyridin-4-yl)-5H-pyrrolo[3,4-b]pyridin-7-amine] had a half-maximal inhibitory concentration (IC50) of 26000 nM.

For the molecule `NC1=NC(c2ccncc2)(c2cccc(OCCCF)c2)c2cccnc21` (stereo not drawn) [Example 10, 5-(3-(3-Fluoropropoxy)phenyl)-5-(pyridin-4-yl)-5H-pyrrolo[3,4-b]pyridin-7-amine], half-maximal inhibition (IC50) required 2400 nM. This IC50 lies about 11-fold lower than the previous one.

In turn, `COc1c(C)cc(C2(c3cccc(OCCCF)c3)N=C(N)c3ncccc32)cc1C` (stereo not drawn) [Example 11, 5-(3-(3-Fluoropropoxy)phenyl)-5-(4-methoxy-3,5-dimethylphenyl)-5H-pyrrolo[3,4-b]pyridin-7-amine] came in with a half-maximal inhibitory concentration (IC50) of 81 nM.

`COc1cc(C2(c3cccc(OCCCF)c3)N=C(N)c3ncccc32)ccn1` (stereo not drawn) [Example 12, 5-(3-(3-Fluoropropoxy)phenyl)-5-(2-methoxypyridin-4-yl)-5H-pyrrolo[3,4-b]pyridin-7-amine] displayed a concentration for half-maximal inhibition (IC50) of 2700 nM.

Molecule `Cc1cc(C2(c3cccc(OCCCF)c3)N=C(N)c3ncccc32)ccn1` (stereo not drawn) [Example 13, 5-(3-(3-Fluoropropoxy)phenyl)-5-(2-methylpyridin-4-yl)-5H-pyrrolo[3,4-b]pyridin-7-amine] had an IC50 of 2700 nM.

Take `COc1ccc(C2(c3cccc(OCCCF)c3)N=C(N)c3ncccc32)cc1C(F)(F)F` (stereo not drawn) [Example 14, 5-(3-(3-Fluoropropoxy)phenyl)-5-(4-methoxy-3-(trifluoromethyl)phenyl)-5H-pyrrolo[3,4-b]pyridin-7-amine]: the IC50 was found to be 960 nM.

`Cc1cc(C2(c3cccc(OCC(C)C)c3)N=C(N)c3ncccc32)cc(C)n1` (stereo not drawn) [Example 15, 5-(2,6-Dimethylpyridin-4-yl)-5-(3-isobutoxyphenyl)-5H-pyrrolo[3,4-b]pyridin-7-amine acetate] displayed an IC50 of 3800 nM.

The molecule `COc1ncc(C2(c3cccc(OCC(C)C)c3)N=C(N)c3ncccc32)cc1C` (stereo not drawn) [Example 16, 5-(3-Isobutoxyphenyl)-5-(6-methoxy-5-methylpyridin-3-yl)-5H-pyrrolo[3,4-b]pyridin-7-amine acetate] displayed an IC50 of 3100 nM. This IC50 and that of the molecule before are within 1.5-fold of each other.

`CC(C)COc1cccc(C2(c3ccc(OC(F)F)nc3)N=C(N)c3ncccc32)c1` (stereo not drawn) [Example 17, acetate] came in with an IC50 of 1300 nM.

In turn, `CC(C)COc1cccc(C2(c3ccc(OC(F)F)cc3)N=C(N)c3ncccc32)c1` (stereo not drawn) [Example 18, 5-(4-(Difluoromethoxy)phenyl)-5-(3-isobutoxyphenyl)-5H-pyrrolo[3,4-b]pyridin-7-amine] displayed a half-maximal inhibitory concentration (IC50) of 150 nM.

`Cc1cc(C2(c3cccc(OCCCF)c3)N=C(N)c3ncccc32)cc(OC(F)F)n1` (stereo not drawn) [Example 19, 5-(2-(Difluoromethoxy)-6-methylpyridin-4-yl)-5-(3-(3-fluoropropoxy)phenyl)-5H-pyrrolo[3,4-b]pyridin-7-amine] displayed a half-inhibitory concentration (IC50) of 909 nM.

Consider `COc1ccc(C2(c3cccc(OCCCF)c3)N=C(N)c3ncccc32)cc1Cl` (stereo not drawn) [Example 20, 5-(3-Chloro-4-methoxyphenyl)-5-(3-(3-fluoropropoxy)phenyl)-5H-pyrrolo[3,4-b]pyridin-7-amine], for which the midpoint of inhibition, the IC50, lay at 779 nM.

As for `NC1=NC(c2cccc(OCCC(F)F)c2)(c2ccnc(C(F)(F)F)c2)c2cccnc21` (stereo not drawn) [Example 21, 5-(3-(3,3-Difluoropropoxy)phenyl)-5-(2-(trifluoromethyl)pyridin-4-yl)-5H-pyrrolo[3,4-b]pyridin-7-amine trifluoroacetic acid salt], the half-inhibitory concentration (IC50) was found to be 1150 nM.

As to `COc1c(C)cc(C2(c3cccc(OCCC(F)F)c3)N=C(N)c3ncccc32)nc1C` (stereo not drawn) [Example 22, 5-(3-(3,3-Difluoropropoxy)phenyl)-5-(5-methoxy-4,6-dimethylpyridin-2-yl)-5H-pyrrolo[3,4-b]pyridin-7-amine acetic acid salt], 337 nM corresponded to half-maximal inhibition (IC50). This IC50 is about 3.4-fold lower than that of the molecule before.

Consider `NC1=NC(c2cccc(OCCCF)c2)(c2ccnc(OC(F)F)c2)c2cccnc21` (stereo not drawn) [Example 23, 5-(2-(Difluoromethoxy)pyridin-4-yl)-5-(3-(3-fluoropropoxy)phenyl)-5H-pyrrolo[3,4-b]pyridin-7-amine 1.67 acetic acid], for which the IC50 amounted to 2620 nM.
